Assay results taken from ChEMBL document CHEMBL1201862, “PubChem BioAssay data set” (2004).
Where a name gives a salt, the structure may show the parent alone. Activity calls are given as the source filed them. Cut-off read from the data, not from the text of the source, for most assays here: actives have a measured EC50 and inactives only a lower limit.

Key:
[1] = target: Luciferin 4-monooxygenase (Photinus pyralis, UniProt P08659); assay: firefly luciferase enzyme inhibitors, dose response, biochemical, luminescence (AID 1891)
Sequence of Luciferin 4-monooxygenase (P08659 whole entry): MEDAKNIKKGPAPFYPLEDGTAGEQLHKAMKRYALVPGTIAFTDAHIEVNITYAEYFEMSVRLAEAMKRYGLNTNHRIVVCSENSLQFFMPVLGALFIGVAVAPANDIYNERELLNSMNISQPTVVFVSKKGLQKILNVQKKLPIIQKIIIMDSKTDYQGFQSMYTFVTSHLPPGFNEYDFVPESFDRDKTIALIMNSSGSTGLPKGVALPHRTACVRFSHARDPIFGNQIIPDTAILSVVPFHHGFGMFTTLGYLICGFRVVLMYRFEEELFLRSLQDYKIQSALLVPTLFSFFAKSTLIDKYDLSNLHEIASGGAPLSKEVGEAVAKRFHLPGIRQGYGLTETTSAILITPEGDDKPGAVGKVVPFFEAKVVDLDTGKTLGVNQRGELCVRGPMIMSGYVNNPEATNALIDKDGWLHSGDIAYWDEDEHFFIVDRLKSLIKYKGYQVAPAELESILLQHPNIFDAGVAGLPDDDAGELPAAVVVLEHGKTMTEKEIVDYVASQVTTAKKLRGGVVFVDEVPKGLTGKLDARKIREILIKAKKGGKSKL

[2] = Luminescence Cell-Based Dose Confirmation HTS to Identify Inhibitors of Platelet Dense Granule Release. [Related pubchem assays: 1663 (Primary HTS), 1678 (Summary of Project)]; type: functional
[3] = microbe, parasite or virus in culture; type: functional; conditions: Mycobacterium tuberculosis
[4] = target: T1, Heat shock factor protein 1 (Mus musculus, UniProt P38532); assay: HSF1 potentiators in luciferase reporter cells, confirmation, cell-based, NIH3T3, luminescence, dose retest (AID 435004); type: functional;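 note: stress induced by proteasome inhibitor MG132 added 30 min after compound; luciferase reporter driven by HSF1 response element in NIH3T3 cells; actives raise luminescence as potentiators of the MG132 stress response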
T1 sequence (P38532 whole entry): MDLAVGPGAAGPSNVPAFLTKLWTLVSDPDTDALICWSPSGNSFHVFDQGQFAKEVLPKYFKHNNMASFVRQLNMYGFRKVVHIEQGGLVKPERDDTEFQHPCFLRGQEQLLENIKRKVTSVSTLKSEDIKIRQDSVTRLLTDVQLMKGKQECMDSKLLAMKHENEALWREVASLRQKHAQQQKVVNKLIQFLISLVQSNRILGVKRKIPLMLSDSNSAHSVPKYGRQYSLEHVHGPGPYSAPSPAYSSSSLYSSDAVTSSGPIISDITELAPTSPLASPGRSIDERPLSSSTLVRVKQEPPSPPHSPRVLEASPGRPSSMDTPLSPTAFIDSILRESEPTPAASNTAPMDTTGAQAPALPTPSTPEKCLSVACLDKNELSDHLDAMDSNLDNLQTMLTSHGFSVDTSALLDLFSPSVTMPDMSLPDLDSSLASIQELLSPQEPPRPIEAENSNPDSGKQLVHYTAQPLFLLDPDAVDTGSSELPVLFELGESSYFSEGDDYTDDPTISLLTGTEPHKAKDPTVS

[5] = target: T2, RNA-binding protein pos-1 (Caenorhabditis elegans, UniProt G5EF15); assay: inhibitors of POS-1/mex-3 RNA binding, dose response, biochemical, fluorescence polarization (AID 1964);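 note: purified POS-1 fused to maltose binding protein made in E. coli; potency of compounds blocking POS-1 binding to fluorescent RNA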
T2 sequence (G5EF15 whole entry): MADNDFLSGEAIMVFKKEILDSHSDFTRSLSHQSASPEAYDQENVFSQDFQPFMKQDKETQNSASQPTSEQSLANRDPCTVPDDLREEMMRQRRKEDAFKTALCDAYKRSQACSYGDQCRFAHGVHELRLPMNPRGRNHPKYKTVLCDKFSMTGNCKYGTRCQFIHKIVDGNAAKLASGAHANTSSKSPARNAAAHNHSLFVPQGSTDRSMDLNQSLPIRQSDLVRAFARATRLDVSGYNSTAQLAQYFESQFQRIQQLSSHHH

[6] = target: T3, Corticotropin-releasing factor receptor 2/Corticotropin-releasing factor-binding protein (Homo sapiens, UniProt P24387+Q13324); assay: activators of CRF receptor 2 with binding protein – uHTS hits, confirmation (AID 602473); type: functional; conditions: read-out: EC50_Mean
T3 sequence (Q13324 whole entry): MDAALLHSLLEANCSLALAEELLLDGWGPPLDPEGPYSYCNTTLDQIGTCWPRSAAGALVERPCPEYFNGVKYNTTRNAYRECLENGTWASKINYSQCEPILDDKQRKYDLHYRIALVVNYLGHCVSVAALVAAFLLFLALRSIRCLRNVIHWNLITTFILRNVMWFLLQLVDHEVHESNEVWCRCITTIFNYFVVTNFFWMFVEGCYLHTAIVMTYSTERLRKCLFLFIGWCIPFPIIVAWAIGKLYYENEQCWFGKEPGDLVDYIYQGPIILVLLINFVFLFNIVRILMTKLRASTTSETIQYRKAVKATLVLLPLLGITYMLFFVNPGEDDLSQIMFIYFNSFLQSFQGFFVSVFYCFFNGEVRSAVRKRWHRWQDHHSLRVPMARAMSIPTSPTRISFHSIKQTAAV
T3 sequence (P24387 whole entry): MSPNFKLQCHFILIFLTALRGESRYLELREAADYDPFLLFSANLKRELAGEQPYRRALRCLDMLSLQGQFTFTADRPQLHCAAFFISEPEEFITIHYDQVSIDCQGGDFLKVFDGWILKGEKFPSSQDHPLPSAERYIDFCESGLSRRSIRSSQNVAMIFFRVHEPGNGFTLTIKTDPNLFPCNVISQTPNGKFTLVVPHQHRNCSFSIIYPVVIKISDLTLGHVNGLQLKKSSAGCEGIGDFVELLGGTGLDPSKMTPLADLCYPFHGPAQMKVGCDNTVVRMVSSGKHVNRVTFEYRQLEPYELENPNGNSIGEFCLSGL

[7] = inhibitors of firefly luciferase expression or activity, dose response, H4 neuroglioma cells, luminescence (AID 1990); type: functional, cell-based
[8] = Luminescence Cell-Based Dose Response HTS to Identify Inhibitors of 5'UTR Stem-Loop Driven Prion Protein mRNA Translation in H4 Neuroglioblastoma Cells. [Related pubchem assays: 1827 (Project Summary), 1813 (Primary HTS)]; type: functional
[9] = inhibitors of SNCA 5'UTR-driven reporter translation, confirmation, H4 neuroglioma cells, luminescence (AID 1988); type: functional, cell-based
[10] = growth suppression of PTEN-null colon cells, dose response, cell-based, HCT116 PTEN knockout (AID 1047); type: functional;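 note: HCT116 colon tumor cells with PTEN knocked out; cells exposed to compound for 60 hours before readout; potency for loss of cell viability measured by luminescence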
[11] = growth suppression of beta-catenin-knockout colon cells, dose response, cell-based, HCT116, human colon tumor (AID 1045); type: functional;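 note: HCT116 colon tumor cells with beta catenin knocked out; cells exposed to compound for 60 hours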
[12] = Luminescence Cell-Based Dose Retest to Confirm Inhibitors of Cancer Stem Cells. [Related pubchem assays (depositor defined):AID2717, AID2721]; type: functional; conditions: Homo sapiens
[13] = HEp-2 cell cytotoxicity, dose response, cytotoxicity control for RSV inhibitor project, HTS (AID 2410); type: functional; conditions: human respiratory syncytial virus
[14] = test system: Streptococcus sp. 'group A'; assay: growth inhibition of control SK(-) GAS strain, dose response, counter-screen for streptokinase expression inhibitor project, luminescence, kanamycin, BacTiterGlo, confirmation (AID 1900); type: functional, organism-based
Streptococcus = assay: Group A Streptococcus viability loss, dose response, counter-screen for streptokinase expression inhibitor project, luminescence, BacTiterGlo (AID 1915); type: functional, organism-based;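 note: potency for reduction of bacterial viability or growth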
INS1 = assay: beta cell apoptosis inhibitors, cytokine rescue, dose response, luminescence, retest (AID 449756); type: functional, cell-based; conditions: Rattus norvegicus;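 note: cell death triggered by IL-1 beta plus TNF-alpha plus IFN-gamma mixture; protective hits raise ATP signal compared with cytokine alone wells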
cells = type: functional
[15] = Luminescence Cell-Based Dose Confirmation HTS to Identify Activators of 5'UTR Stem-Loop Driven Alpha-Synuclein mRNA Translation in H4 Neuroglioblastoma Cells. [Related pubchem assays: 1829 (Project Summary), 1814 (Primary HTS)]; type: functional
[16] = Luminescence Cell-Based Dose Response HTS to Identify Activators of Luciferase Translation or Activity in H4 […] Cells. [Related pubchem assays: 1829 (Project Summary), 1814 (Primary HTS)]; type: functional
H4 = assay: Luminescence Cell-Based Dose Response HTS to Identify Activators of 5'UTR Stem-Loop Driven Prion Protein mRNA Translation in H4 Neuroglioblastoma Cells. [Related pubchem assays: 1829 (Project Summary), 1814 (Primary HTS)]; type: functional; conditions: Homo sapiens

## O=C(CCNC(=O)C1CCN(S(=O)(=O)c2ccc(F)cc2)CC1)NCc1ccc(Cl)cc1
[1]
  EC50: > 112 µM (not active)
[2]
  EC50: > 112 µM (not active)

## CCC(=O)Oc1ccc(C(=O)Nc2ccc3c(c2)C(=O)N(C2CCCCC2)C3=O)cc1
[3]
  CC50: 39.9 µM (active)

## Nc1nnc(SCc2c(F)cccc2Cl)s1
[4]
  EC50: > 260 µM (inactive)

## COc1cc(S(=O)(=O)Nc2ccc(C)cc2)ccc1N/C=C1\C(=O)N(C)C(=O)C(C#N)=C1C
[5]
  EC50: 2.83 µM (active)
[6]
  EC50: > 53 µM (inactive)

## CCOc1ccc(NC(=O)C(=O)NCCN2CCN(C(=O)c3ccc(C)cc3)CC2)cc1
[7]
  EC50: 14.7 µM (active)
[8]
  EC50: 64.8 µM (active)
[9]
  EC50: 63.7 µM (active)

## COc1cc2[nH]c(=O)n(CCCCCC(=O)N3CC=C(c4ccccc4)CC3)c(=O)c2cc1OC
[10]
  EC50: 21.9 µM (active)
[11]
  EC50: 27.9 µM (active)

## CCO[C@H]1OC(C(=O)NCc2nc3ccccc3[nH]2)=C[C@@H](c2csc3ccccc23)[C@@H]1CCCO
[3]
  CC50: > 40 µM (active)

## COc1ccc(C2NC(=O)CCC2[N+](=O)[O-])c(OC)c1 (stereo not given)
[4]
  EC50: > 260 µM (inactive)

## CCc1cc2c(=O)c(-c3cnn(-c4ccccc4)c3)c(C)oc2cc1OCC(=O)Nc1ccc(F)c(F)c1
[10]
  EC50: 4.93 µM (active)
[11]
  EC50: 4.88 µM (active)

## C=CCN(C(=O)CCC(=O)O)C1CC(=O)N(c2ccc(OC)cc2)C1=O (stereo not given)
[1]
  EC50: > 112 µM (not active)
[2]
  EC50: > 112 µM (not active)

## O=S(=O)(NCCc1cn2ccccc2n1)c1ccc2c(c1)CCCC2
[1]
  EC50: > 112 µM (not active)
[2]
  EC50: > 112 µM (not active)

## CN(Cc1ccco1)c1ncnc2ccc(-c3ccc4c(ccn4C)c3)cc12
[3]
  CC50: 15.4 µM (active)
[12]
  AC50: 0.499 µM (active)

## CCOc1ccccc1C(=O)Nc1cnc(O)nc1O
[13]
  CC50: > 50 µM (active)
[8]
  EC50: > 120 µM (not active)
[9]
  EC50: > 120 µM (not active)
[1]
  EC50: > 112 µM (not active)
[2]
  EC50: 0.125 µM (active)

## Cc1cc(/C=C2\C(=O)NC(=O)N(c3ccc(Br)cc3)C2=O)c(C)n1C
[5]
  EC50: 59.7 µM (active)

## O=C(Nn1cnnc1)c1ccccc1CCc1ccccc1
[1]
  EC50: > 112 µM (not active)
[2]
  EC50: > 112 µM (not active)

## COC(=O)CC1C(=O)NCCN1C(=O)c1ccc(S(=O)(=O)N2CCOCC2)cc1 (stereo not given)
[4]
  EC50: > 260 µM (inactive)

## Cc1c(N=N/C(C#N)=C(\O)c2ccc(Cl)cc2)c(=O)n(-c2ccccc2)n1C
[7]
  EC50: 9.5 µM (active)
[14]
  EC50: 0.528 µM (active)
[8]
  EC50: 9.48 µM (active)
[9]
  EC50: 8.7 µM (active)
Streptococcus
  EC50: 9.3 µM (active)
INS1
  AC50: 2.08 µM (active)

## Nc1ccc2cc(Br)ccc2c1
cells
  IC50: 25.7 µM (active)

## CCn1nnc(NC(=O)c2ccc(-c3ccc(Cl)cc3)o2)n1
cells
  IC50: > 50 µM (active)

## CC(C)(C)OC(=O)NCCCCCc1nnc(SCc2ccc(F)cc2)o1
[3]
  CC50: > 40 µM (active)

## CCC(=O)NCCc1nc2ccccc2n1Cc1ccccc1
[1]
  EC50: > 112 µM (not active)
[2]
  EC50: > 112 µM (not active)

## Nc1cccc(-c2nc3ccccc3s2)c1
[1]
  EC50: 3.81 µM (active)
[2]
  EC50: 7.77 µM (active)

## Cc1ccccc1-n1c(=O)cc(N2CCN(C(=O)c3ccco3)CC2)[nH]c1=O
[1]
  EC50: > 112 µM (not active)
[2]
  EC50: > 112 µM (not active)

## CSC1=NC(/C=C/c2ccc(Cl)cc2)=CC(C)(C)N1
[15]
  EC50: 14.3 µM (active)
[16]
  EC50: > 120 µM (not active)
H4
  EC50: > 120 µM (not active)
[3]
  CC50: 11.1 µM (active)

## O=C(O)c1cccc(S(=O)(=O)N2CCC(n3nnc4cc(C(F)(F)F)ccc43)CC2)c1
[4]
  EC50: > 260 µM (inactive)

## CC(C)Cc1cc(C(=O)Nc2ccc(F)cc2F)no1
cells
  IC50: 12 µM (active)

## COc1cccc(-n2c(N)c(C(=O)Nc3c(C)n(C)n(-c4ccccc4)c3=O)c3nc4ccccc4nc32)c1
[1]
  EC50: > 112 µM (not active)
[2]
  EC50: > 112 µM (not active)

## CCc1cc(C(c2ccccc2OC)N2CCOCC2)c(NC(=O)c2ccccc2)s1 (stereo not given)
[4]
  EC50: 7.34 µM (active)

## Cc1cc2oc(=O)cc(CSc3nc(N)cc(N)n3)c2cc1C
[4]
  EC50: > 260 µM (inactive)

## COc1ccc(C(=O)C2CCCN(Cc3ccc(C)s3)C2)c(OC)c1 (stereo not given)
[4]
  EC50: > 260 µM (inactive)

## NC(=O)COc1ccccc1
[4]
  EC50: > 260 µM (inactive)

## O=C(N/N=C/C=C/c1cccc([N+](=O)[O-])c1)c1ccncc1
cells
  IC50: 34.9 µM (active)

## COc1cc(SC#N)ccc1/N=C/c1c(C)[nH]n(-c2ccc(C)c(C)c2)c1=O
[10]
  EC50: 8.81 µM (active)
[11]
  EC50: 8.18 µM (active)
[12]
  AC50: 1.41 µM (active)
INS1
  AC50: 4.24 µM (active)

## CC(/C=C/c1cccc([N+](=O)[O-])c1)=N\NC(=O)c1ccncc1
cells
  IC50: 0.94 µM (active)

## CN(C)CCCN1c2ccccc2CCc2ccc(Cl)cc21 [CLOMIPRAMINE HYDROCHLORIDE]
[10]
  EC50: 9.89 µM (active)
[11]
  EC50: 10.3 µM (active)
